{"source": "patent US20040029208A1", "about": "“Assay method and kit for testing biological material for exposure to stress using biomarkers” (priority 2000, published 2004)", "key": {"Mentha spicata": {"system": "Mentha spicata", "assay": "TLC phytochemical changes after Roundup Bio (sensitivity)", "type": "in vivo", "from_the_text": "(§1) Glyphosate (Roundup Bio (360 g L1:) was supplied by Monsanto Denmark ANS. Recommended field dose =1,44 kg a.i. ha^−1. In all the experiments, an automatic sprayer (designed in Denmark by Jens Kristensen 1994) was used where the herbicide application is achieved by moving boom equipment with two ordinary hydraulic flat fan nozzles (Hardl 4110-16). Two pots per spray event were placed in the middle of the spray chamber at 50 cm distance from the nozzle, delivering 200 L of water per hectare with a desired herbicide concentration (working pressure 2 bars; speed of spray boom=4.7 km h^1). The spraying was performed starting with the lowest concentration first, progressing towards the highest concentration. Between each herbicide, the sprayer was thoroughly rinsed several times with water. The control plants were sprayed with water.\n(§2) The study was performed in greenhouse between August and December 1998 for all species. Degree days (=(Present temperature in ° C.-5° C.)×amount of days) were used as time scale. The plants were 226-378 degree days (30 days) old before exposure. The plants were exposed to 0, 1. 10 and 100% of the recommended field dose of Roundup Bio. Before the harvest, the plants were evaluated for visual effects using the rating chart described in Table 1 (Hamit et al., 1977). A rating of zero indicates full growth and vigour (compared with control plants) and a rating of nine, no growth/mortality. The plants were all harvested 180 degree days (14 days) after exposure. The plants were lyophilizied and k pt dry and in dark before phytochemical analysis.\n(§3) 250 mg lyophilized plant material was crushed and extracted with 5.00 ml 75% ethanol in water in ultrasonic bath for two hours. Ice was added to the bath every 30 minutes to keep the temperature constant during the extraction. The extracts wer transferred to vials and centrifuged (3000 g per min.) for 10 minut s. The extract was immediately used for phytochemical analysis.\n(§4) Frozen or fresh plant material was pressed for plant sap using a hand press. The sap was transferred to vials and centrifuged (3000 g per min.) for 10 minutes. The extract was immediately used for phytochemical analysis.\n(§5) Rf-values (defined as, Rf-value=Distance of spot centre from start point/Distance of solvent front from start point (Stahl, 1969)) were determined for all phytochemical compounds.\n(§6) In table 2 the sensitivity of the different plant species to Roundup Bio is presented. The sensitivity of the plant species was evaluated on basis of the presence of the most frequent pattern, the lowest concentration of exposure, and the visual effect of the exposed plants. In table 2, the plant species are divided into three groups: Group I: Very sensitive plant species; Group II: Medium sensitive plant species, and Group III: Less sensitive plant species. In Group I, a phytochemical pattern was present in plants exposed to 1% of the recommended field dose of Roundup Bio with a visual effect from 0 to 4. In Group II, a phytochemical pattern was found in plants exposed to 1 to 10% of the recommended field dose of the herbicide with a visual effect from 0 to 5. Finally, Group III presents plant species containing a phytochemical pattern after exposure of 10% of the recommended field dose with a visual effect from 5 to 7.\n(§7) Table 2: Sensitivity of plants exposed to glyphosate (Roundup Bio), based on presence of phytochemical changes in all the TLC-Systems at lowest dose of concentration (LC) of the herbicide in percent of field dose. The corresponding visual effect (VE) Is presented (see table 1)."}, "Leonorus carica": {"system": "Leonorus carica", "assay": "TLC phytochemical changes after Roundup Bio (sensitivity)", "type": "in vivo", "from_the_text": "as §1, §2, §3, §4, §5, §6, §7"}, "Fallopia convolvulus": {"system": "Fallopia convolvulus", "assay": "TLC phytochemical changes after Roundup Bio (sensitivity)", "type": "in vivo", "from_the_text": "as §1, §2, §3, §4, §5, §6, §7"}, "Sinapis avensis": {"system": "Sinapis avensis", "assay": "TLC phytochemical changes after Roundup Bio (sensitivity)", "type": "in vivo", "from_the_text": "as §1, §2, §3, §4, §5, §6, §7"}, "Nepeta cataria": {"system": "Nepeta cataria", "assay": "TLC phytochemical changes after Roundup Bio (sensitivity)", "type": "in vivo", "from_the_text": "as §1, §2, §3, §4, §5, §6, §7"}, "Papaver rhoeas": {"system": "Papaver rhoeas", "assay": "TLC phytochemical changes after Roundup Bio (sensitivity)", "type": "in vivo", "from_the_text": "as §1, §2, §3, §4, §5, §6, §7"}, "Rumex crispus": {"system": "Rumex crispus", "assay": "TLC phytochemical changes after Roundup Bio (sensitivity)", "type": "in vivo", "from_the_text": "as §1, §2, §3, §4, §5, §6, §7"}, "Rudbeckia hirta": {"system": "Rudbeckia hirta", "assay": "TLC phytochemical changes after Roundup Bio (sensitivity)", "type": "in vivo", "from_the_text": "as §1, §2, §3, §4, §5, §6, §7"}, "Bellis perennis": {"system": "Bellis perennis", "assay": "TLC phytochemical changes after Roundup Bio (sensitivity)", "type": "in vivo", "from_the_text": "as §1, §2, §3, §4, §5, §6, §7"}, "all tested plants": {"system": "all tested plants", "assay": "Most frequent TLC biomarker pattern of all tested plants", "type": "in vivo", "conditions": "stability experiments", "from_the_text": "By th term “standard biomarker pattern” is m ant a patternd of the composition of compounds present in a plant after exposure to known stress factors. According to th invention th biomarker pattern of the unknown compounds, i.e. the above described biomarker pattern, is correlated to a standard biomarker pattern, also referred to as a “most frequent pattern”. In order to interpret the biomarker patterns of test material that has been exposed to unknown stress factors, it is a prerequisite to provide standard biomarker patterns, i.e. most frequent patterns. By the latter is meant the same type of biomarker pattern obtained after exposure to a stress factor in more than 50% of the cases of exposure, such as 60%, for example 70%, such as 80%, for example 90%. The biomarker patterns of test material that has been exposed to unknown stress factors may then be correlated to standard biomarker patterns. The standard biomarker pattern may be obtained for one particular stress factor or for a combination of at least two different stress factors.\nThe study was performed in greenhouse between August and December 1998 for all species. Degree days (=(Present temperature in ° C.-5° C.)×amount of days) were used as time scale. […] Before the harvest, the plants were evaluated for visual effects using the rating chart described in Table 1 (Hamit et al., 1977). […]"}, "white birch seedlings": {"system": "white birch seedlings", "conditions": "within 24h of application, even at 1% of field rate; cited from earlier work"}, "Plantágo lanceoláta": {"system": "Plantágo lanceoláta", "assay": "Visual effect rating (0-9) after herbicide spraying", "type": "in vivo", "from_the_text": "(§8) Four, eight, sixteen and thirty two days after spraying, visual effects on plants were noted before harvest, using the rating chart described in Hamil. et al. (1977) and Boutin et al. (1993); a rating of zero indicates full growth and vigour, and a rating of nine indicates no growth/mortality.\n(§9) The min. visual effect (VE) of the presence of plant biomarkers is rated as described by Hamil et al., (1977) and Boutin et al. (1993)."}, "Centauréa cýanus": {"system": "Centauréa cýanus", "assay": "Visual effect rating (0-9) after herbicide spraying", "type": "in vivo", "from_the_text": "as §8, §9"}}}
{"smiles": "O=C(O)CNCP(=O)(O)O", "note": "[Glyphosate]", "values": [{"measurement": "LC: lowest dose of concentration of the herbicide with phytochemical changes in all the TLC-Systems", "setting": "Mentha spicata", "result": "10% of field dose"}, {"measurement": "LC: lowest dose of concentration of the herbicide with phytochemical changes in all the TLC-Systems", "setting": "Leonorus carica", "result": "10% of field dose"}, {"measurement": "LC: lowest dose of concentration of the herbicide with phytochemical changes in all the TLC-Systems", "setting": "Fallopia convolvulus", "result": "1% of field dose"}, {"measurement": "LC: lowest dose of concentration of the herbicide with phytochemical changes in all the TLC-Systems", "setting": "Sinapis avensis", "result": "10% of field dose"}, {"measurement": "LC: lowest dose of concentration of the herbicide with phytochemical changes in all the TLC-Systems", "setting": "Nepeta cataria", "result": "10% of field dose"}, {"measurement": "LC: lowest dose of concentration of the herbicide with phytochemical changes in all the TLC-Systems", "setting": "Papaver rhoeas", "result": "1% of field dose"}, {"measurement": "LC: lowest dose of concentration of the herbicide with phytochemical changes in all the TLC-Systems", "setting": "Rumex crispus", "result": "1% of field dose"}, {"measurement": "LC: lowest dose of concentration of the herbicide with phytochemical changes in all the TLC-Systems", "setting": "Rudbeckia hirta", "result": "1% of field dose"}, {"measurement": "LC: lowest dose of concentration of the herbicide with phytochemical changes in all the TLC-Systems", "setting": "Bellis perennis", "result": "10% of field dose"}, {"measurement": "time after exposure at which phytochemical changes were seen", "setting": "all tested plants; 60 degree days", "result": 4, "unit": "days"}, {"measurement": "time after exposure up to which a phytochemical pattern was present", "setting": "all tested plants; 480 degree days", "result": "up to 32 days"}, {"measurement": "increase of shikimic acid levels", "setting": "white birch seedlings", "result": 10, "unit": "fold"}, {"measurement": "Min. visual effect", "setting": "Plantágo lanceoláta; at presence of TLC 1 biomarker", "result": 0}, {"measurement": "Min. visual effect", "setting": "Plantágo lanceoláta; at presence of TLC 6 biomarker", "result": 4}, {"measurement": "Min. visual effect", "setting": "Centauréa cýanus; at presence of TLC 1 biomarker", "result": 3}, {"measurement": "Min. visual effect", "setting": "Centauréa cýanus; at presence of TLC 6 biomarker", "result": 3}, {"measurement": "Min. visual effect", "setting": "Centauréa cýanus; at presence of TLC 7 biomarker", "result": 3}]}
